Target: T1, AORX514 (AOR-His) (Thermoanaerobacter pseudethanolicus, UniProt B0K8P3)
T1 construct: gene Teth39_0850; full length, C-terminal 6xHis (plasmid pJM009), made in Thermoanaerobacter kivui MB014; W-containing, FeS cluster
Assay: acetaldehyde-dependent viologen reduction at […] nm; substrate inhibition kinetics
Type: biochemical
Conditions: benzyl viologen as electron acceptor, routine assay 50 mM TRIS pH 7.5, 65 °C, anoxic

T1 sequence (B0K8P3 1-599): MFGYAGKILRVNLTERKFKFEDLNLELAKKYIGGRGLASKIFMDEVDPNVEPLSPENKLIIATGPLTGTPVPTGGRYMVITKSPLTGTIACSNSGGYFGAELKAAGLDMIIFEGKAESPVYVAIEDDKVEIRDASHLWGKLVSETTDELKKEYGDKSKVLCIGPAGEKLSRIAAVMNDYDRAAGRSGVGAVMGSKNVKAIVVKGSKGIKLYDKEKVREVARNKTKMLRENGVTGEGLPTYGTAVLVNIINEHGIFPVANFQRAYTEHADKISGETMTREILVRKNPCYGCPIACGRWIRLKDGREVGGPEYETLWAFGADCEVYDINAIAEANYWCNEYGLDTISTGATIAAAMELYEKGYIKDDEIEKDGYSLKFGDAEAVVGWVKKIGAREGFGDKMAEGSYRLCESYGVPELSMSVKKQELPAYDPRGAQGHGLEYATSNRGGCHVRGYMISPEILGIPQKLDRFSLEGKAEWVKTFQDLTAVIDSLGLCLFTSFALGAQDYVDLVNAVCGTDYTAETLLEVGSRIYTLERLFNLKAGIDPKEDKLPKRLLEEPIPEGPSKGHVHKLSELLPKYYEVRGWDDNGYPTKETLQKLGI

Work on `CC=O` [Acetaldehyde] yielded a ki of 8.7 ± 1.3 mM.
